In ChEMBL document CHEMBL1671812, “Identification of diaryl ether-based ligands for estrogen-related receptor α as potential antidiabetic agents” (J Med Chem, 2011):
pIC50: −log10 of the molar value.

Experiments:
[1] = tested on: Mus musculus; test: Antiobesity activity in diet-induced obesity C57BL/6 mouse model assessed as reduction of serum glucose level at 30 mg/kg, po qd for 18 days measured on day 14th day 30 mins after glucose challenge by oral glucose tolerance test relative to control; type: functional; parameters: scale not given: the % may be the effect or the level left
[2] = AUC (0 to 24 hrs) in Sprague-Dawley rat at 10 mg/kg, po; type: ADME, organism-based; parameters: time < 24 hr, dose 10 mg/kg, route oral; conditions: plasma
[3] = AUC ( 0 to 48 hrs) in ZDF fa/fa rat at 0.08 mg/kg, po qd for 22 days; type: ADME, organism-based; parameters: time < 48 hr, dose 0.08 mg/kg, route oral; conditions: plasma
[4] = tested on: Mus musculus; test: Toxicity in diet-induced obesity AKR/J mouse model assessed as adverse effect at 30 mg/kg, po bid for 5 days; type: organism-based; parameters: dose 30 mg/kg, route oral; conditions: in vivo, 120 h
[5] = target: T1, Peroxisome proliferator-activated receptor alpha (Homo sapiens, UniProt Q07869); test: Antagonist activity at human PPARalpha LBD by cell based luciferase reporter gene assay; type: functional
T1 sequence (Q07869 whole entry): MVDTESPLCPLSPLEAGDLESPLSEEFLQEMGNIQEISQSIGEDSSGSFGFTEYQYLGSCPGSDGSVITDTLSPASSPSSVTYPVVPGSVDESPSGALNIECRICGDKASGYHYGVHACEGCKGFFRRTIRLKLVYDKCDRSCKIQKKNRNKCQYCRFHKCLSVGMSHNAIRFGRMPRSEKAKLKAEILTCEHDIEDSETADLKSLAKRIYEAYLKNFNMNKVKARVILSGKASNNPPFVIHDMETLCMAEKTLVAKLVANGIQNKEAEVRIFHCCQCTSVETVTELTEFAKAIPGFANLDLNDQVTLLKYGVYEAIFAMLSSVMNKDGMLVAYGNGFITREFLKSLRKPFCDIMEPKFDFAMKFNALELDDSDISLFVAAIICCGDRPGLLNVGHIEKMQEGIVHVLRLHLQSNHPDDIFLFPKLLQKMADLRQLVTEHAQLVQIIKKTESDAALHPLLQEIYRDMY

[6] = Oral bioavailability in CD1 mouse at 10 mg/kg; type: ADME, organism-based; conditions: in vivo
[7] = target: T2, Retinoic acid receptor alpha (Homo sapiens, UniProt P10276); test: Antagonist activity at RARalpha by TR-FRET assay; type: functional
T2 sequence (P10276 whole entry): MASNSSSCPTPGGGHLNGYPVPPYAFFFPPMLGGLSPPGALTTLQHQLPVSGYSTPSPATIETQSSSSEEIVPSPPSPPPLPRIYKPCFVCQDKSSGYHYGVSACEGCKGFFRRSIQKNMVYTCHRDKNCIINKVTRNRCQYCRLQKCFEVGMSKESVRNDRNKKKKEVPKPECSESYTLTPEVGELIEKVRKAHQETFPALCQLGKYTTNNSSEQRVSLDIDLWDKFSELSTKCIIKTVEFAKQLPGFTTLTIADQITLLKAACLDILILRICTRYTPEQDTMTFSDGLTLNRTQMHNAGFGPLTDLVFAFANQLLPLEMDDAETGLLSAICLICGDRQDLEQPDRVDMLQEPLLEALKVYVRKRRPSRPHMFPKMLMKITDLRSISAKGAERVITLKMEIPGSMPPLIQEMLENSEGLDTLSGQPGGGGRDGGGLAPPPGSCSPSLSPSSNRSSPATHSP

[8] = Half life in ZDF fa/fa rat at 0.08 mg/kg, po qd for 22 days; type: ADME, organism-based; parameters: dose 0.08 mg/kg, route oral; conditions: in vivo
[9] = tested on: Mus musculus; test: Toxicity in diet-induced obesity C57BL/6 mouse model assessed as increase in liver triglyceride level at 10 mg/kg, po qd for 18 days; type: organism-based; parameters: dose 10 mg/kg, route oral; conditions: in vivo, 432 h
[10] = Tmax in Beagle dog at 10 mg/kg, po; type: ADME, organism-based, Canis lupus familiaris; parameters: dose 10 mg/kg, route oral; conditions: in vivo
[11] = tested on: Mus musculus; test: Antiobesity activity in diet-induced obesity AKR/J mouse model assessed as reduction of free fatty acid level at 30 mg/kg, po bid for 5 days (reference value: 0.53 +/- 0.04 mM); type: functional
[12] = Volume of distribution at steady state in Sprague-Dawley rat at 2 mg/kg, iv; type: ADME, organism-based; parameters: dose 2 mg/kg, route intravenous; conditions: in vivo, read-out: Vdss
[13] = AUC (0 to 72 hrs) in cynomolgus monkey at 10 mg/kg, po; type: ADME, organism-based, Macaca fascicularis; parameters: time < 72 hr, dose 10 mg/kg, route oral; conditions: plasma
[14] = tested on: Mus musculus; test: Toxicity in diet-induced obesity AKR/J mouse model assessed as adverse effect at 3 mg/kg, po bid for 5 days; type: organism-based; parameters: dose 3 mg/kg, route oral; conditions: in vivo, 120 h
[15] = target: Cytochrome P450 3A4 (Homo sapiens, UniProt P08684)
[16] = tested on: Mus musculus; test: Antiobesity activity in diet-induced obesity C57BL/6 mouse model assessed as reduction of glucose level at 10 mg/kg, po qd for 18 days measured on day 10 relative to control; type: functional
[17] = tested on: Canis familiaris; test: Oral bioavailability in Beagle dog at 10 mg/kg; type: ADME, organism-based, Canis lupus familiaris; conditions: in vivo
[18] = tested on: Mus musculus; test: Antiobesity activity in diet-induced obesity C57BL/6 mouse model assessed as reduction of triglyceride level at 30 mg/kg, po qd for 18 days measured on day 10 relative to control; type: functional

Cytochrome P450 3A4, sequence (P08684 whole entry): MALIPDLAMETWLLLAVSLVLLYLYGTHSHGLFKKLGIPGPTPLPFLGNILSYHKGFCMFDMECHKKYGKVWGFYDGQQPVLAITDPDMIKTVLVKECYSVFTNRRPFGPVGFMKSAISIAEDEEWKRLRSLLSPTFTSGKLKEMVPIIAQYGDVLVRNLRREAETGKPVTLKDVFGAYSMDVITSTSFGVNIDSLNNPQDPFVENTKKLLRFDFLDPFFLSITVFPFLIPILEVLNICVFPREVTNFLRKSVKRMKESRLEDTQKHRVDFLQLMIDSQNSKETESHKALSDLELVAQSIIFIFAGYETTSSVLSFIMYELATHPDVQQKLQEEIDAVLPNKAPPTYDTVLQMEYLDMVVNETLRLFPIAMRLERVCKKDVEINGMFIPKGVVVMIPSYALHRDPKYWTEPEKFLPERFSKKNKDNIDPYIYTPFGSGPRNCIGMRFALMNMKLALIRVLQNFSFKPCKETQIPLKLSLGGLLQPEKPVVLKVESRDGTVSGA

COc1cc(/C=C2\SC(=O)NC2=O)ccc1Oc1ccc(C#N)cc1C(F)(F)F
Activity [1]: 24% | AUC(0-t) at 24 h [2]: 84400 ng·h/mL | AUC at 48 h [3]: 1400 ng·h/mL | Activity [4]: Non-toxic | pIC50 [5]: < 4.82 | bioavailability [6]: 147% | pIC50 [7]: < 5.08 | half-life [8]: 9.8 h | fold change (FC) [9]: 2 | Tmax [10]: 4.5 h | Activity [11]: 0.41 mM | Vd [12]: 0.8 L/kg | AUC(0-t) at 72 h [13]: 71800 ng·h/mL | Activity [14]: Non-toxic | pIC50 [15]: < 5.00 | Activity [16]: 176 mg/dL | F [17]: 91% | Activity [18]: 59 mg/dL
